The test system of this test is dinitrofluorobenzene-induced auricle edema reaction. Put plainly: Suppressive action on dinitrofluorobenzene-induced auricle edema reaction in mouse. Type of test: in vivo. Particulars: for auricle edema suppression rate (%): BALE/c mice (female), test compound 1% (w/v %) in acetone applied to front and back of auricle (total 20 μL) 1 hr before and 3 hr after induction, auricle thickness 24 hr after induction; for suppressive action on auricle edema response (in words): BALE/c mice, 1% (w/v %) in acetone applied to auricle. The procedure: BALE/c mice (female, supplied by CHARLES RIVER LABORATORIES JAPAN, INC.) were purchased at the age of 5 weeks. After quarantine and acclimation, mice showing smooth body weight increase and free of abnormality in appearance were used and the test was started at the age of 7 weeks. The mice were housed in a breeding room at room temperature 19-25° C., humidity 30-70%, 12 hr lighting per day (7 a.m.-7 p.m.) with 3 mice in each plastic gauge, and bred on with free ingestion of a commercially available solid feed and water. Two days before the test, the abdomen of the BALE/c mice was shaved, and the mice were immunized by applying 100 μL of a solution {concentration 0.5% [weight (w)/volume (v) %]} of dinitrofluorobenzene (manufactured by Nacalai Tesque) in acetone (manufactured by Wako Pure Chemical Industries, Ltd.) to the shaved part. The reaction was induced by applying dinitrofluorobenzene-acetone solution [concentration 0.2% (w/v %)] to the front and the back of auricle (10 μL to each, total 20 μL) on day 5 after the immunization. A test compound dissolved in acetone at concentration of 1% (w/v %) was administered by applying same to the front and the back of auricle (10 μL to each, total 20 μL) 1 hr before and 3 hr after induction of the reaction. After application, the applied part was air-dried with a dryer. The group applying administered with the test compound was taken as a test compound administration group, and the group applying administered with acetone as a solvent instead of the test compound was taken as a solvent administration group. Also, the group free of immunization and reaction induction but applying administered with acetone instead of the test compound was taken as a normal group. The thickness of auricle was measured using a dial thickness gauge (G-1A manufactured by OZAKI MFG. CO., LTD.) immediately before and 24 hr after induction of the reaction, and the difference thereof was taken as auricle edema. The suppression rate (%) of auricle edema was calculated according to the following formula. [formula]

Experimental findings from US9643952B2, “Pyridone compound” (KYOWA HAKKO KIRIN CO., LTD., priority 2012, dated 2017) are described below.

Turning to `Cc1cc(C#N)ccc1Nc1c(C(=O)N2CCC(c3ccc(F)cc3)CC2)cn(C)c(=O)c1Cl` [Compound 100, 4-{3-chloro-5-[4-(4-fluorophenyl)piperidine-1-carbonyl]-1-methyl-2-oxo-1,2-dihydropyridin-4-ylamino}-3-methylbenzonitrile], the “auricle edema suppression rate (%)” value is on record as 53% and the “suppressive action on auricle edema response (in words)” value (shortened to “suppressive action”) is reported as “showed a suppressive action on auricle edema response”.
`Cc1c(Nc2ccc(F)cc2F)c(C(=O)N2CCC(c3ccc(F)cc3)CC2)cn(C)c1=O` [Compound 125, 4-(2,4-difluorophenylamino)-5-[4-(4-fluorophenyl)piperidine-1-carbonyl]-1,3-dimethylpyridin-2(1H)-one]: the “auricle edema suppression rate (%)” value was 47% and the “suppressive action” value is listed as “showed a suppressive action on auricle edema response”.
`COCCn1cc(C(=O)N2CCC(c3ccc(F)cc3)CC2)c(Nc2ccc(F)cc2F)c(Cl)c1=O` [Compound 144, 3-chloro-4-(2,4-difluorophenylamino)-5-[4-(4-fluorophenyl)piperidine-1-carbonyl]-1-(2-methoxyethyl)pyridin-2(1H)-one]: the “auricle edema suppression rate (%)” value came out at 32%.
For the compound `Cn1cc(C(=O)N2CCC(c3ccc(F)cc3)CC2)c(Nc2ccc(S(C)(=O)=O)cc2F)c(Cl)c1=O` [Compound 145, 3-chloro-4-[2-fluoro-4-(methylsulfonyl)phenylamino]-5-[4-(4-fluorophenyl)piperidine-1-carbonyl]-1-methylpyridin-2(1H)-one], the “suppressive action” value is listed as “showed a suppressive action on auricle edema response”.
As to `Cc1ccc(Cl)cc1Nc1c(C(=O)N2CCC(c3ccc(F)cc3)CC2)cn(OCCO)c(=O)c1Cl` [Compound 204, 3-chloro-4-(5-chloro-2-methylphenylamino)-5-[4-(4-fluorophenyl)piperidine-1-carbonyl]-1-(2-hydroxyethoxyl)pyridin-2(1H)-one], the “auricle edema suppression rate (%)” value came out at 41% and the “suppressive action” value is reported as “showed a suppressive action on auricle edema response”.
As to `COCCn1cc(C(=O)N2CCC(c3ccc(F)cc3)CC2)c(Nc2ccc3scnc3c2)c(Cl)c1=O` [Compound 206, 4-(benzo[d]thiazol-5-ylamino)-3-chloro-5-[4-(4-fluorophenyl)piperidine-1-carbonyl]-1-(2-methoxyethyl)pyridin-2(1H)-one], the “auricle edema suppression rate (%)” value was 30% and the “suppressive action” value was “showed a suppressive action on auricle edema response”.
